The supplement of paper PMC10307832

Legend:
Test in all cases: relative viability (nuclei count vs DMSO), 5 days (fraction); higher = more cells survive
[1] = tested on: NCI-H2347
Outline: (§1)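 After 5 days of treatment, lung cancer cells in 1536-well plates were fixed and stained in a single step (final 0.05% Triton X-100, 1% formaldehyde, 1 ug/ml Hoechst) and their nuclei counted on 4× images. Treatment had been applied by pin tool the day after seeding as one drug alone or as a fixed anchor-drug dose with five library-drug doses (not always all listed) in √10 steps. Relative viability is the nuclei count of treated wells divided by that of vehicle wells, and values are medians of duplicate plates.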

[2] = tested on: EPLC-272H
Outline: as §1

[3] = tested on: H3255
Outline: as §1

[4] = tested on: NCI-H650
Outline: as §1

[5] = tested on: 201T
Outline: as §1

[6] = tested on: COR-L 105
Outline: as §1

[7] = tested on: NCI-H2087
Outline: as §1

[8] = tested on: NCI-H2126
Outline: as §1

[9] = tested on: NCI-H2405
Outline: as §1

[10] = tested on: HCC-78
Outline: as §1

[11] = tested on: LC-2-ad
Outline: as §1

[12] = tested on: NCI-H1666
Outline: as §1

[13] = tested on: LCLC-97TM1
Outline: as §1

[14] = tested on: NCI-H23
Outline: as §1

[15] = tested on: NCI-H322M
Outline: as §1

[16] = tested on: HCC-827
Outline: as §1

[17] = tested on: NCI-H1915
Outline: as §1

[18] = tested on: NCI-H520
Outline: as §1

[19] = tested on: NCI-H661
Outline: as §1

[20] = tested on: PC-14
Outline: as §1

[21] = tested on: RERF-LC-KJ
Outline: as §1

[22] = tested on: NCI-H647
Outline: as §1

Question: O=C(O)c1ccc(-c2c[nH]c3ncc(-c4ccccc4)cc23)cc1C1CCCC1 + CS(=O)(=O)CCNCc1ccc(-c2ccc3ncnc(Nc4ccc(OCc5cccc(F)c5)c(Cl)c4)c3c2)o1 [Lapatinib] (partner 2 µM) was tested. Which relative viability ([1]; first compound 0.04 µM) did it give?
Answer: 0.96

Question: And the relative viability ([1]; first compound 0.1265 µM)?
Answer: 0.933

Question: What about the relative viability ([1]; first compound 0.4 µM) of the same compound?
Answer: 0.9

Question: What about the relative viability ([1]; first compound 1.265 µM) of the same compound?
Answer: 0.881

Question: What about the relative viability ([2]; first compound 0.04 µM) of the same compound?
Answer: 1.16

Question: What about the relative viability ([2]; first compound 0.1265 µM) of the same compound?
Answer: 1.01

Question: What about the relative viability ([2]; first compound 0.4 µM) of the same compound?
Answer: 0.898

Question: What about the relative viability ([2]; first compound 1.265 µM) of the same compound?
Answer: 0.877

Question: What about the relative viability ([3]; first compound 0.04 µM) of the same compound?
Answer: 0.24

Question: What about the relative viability ([3]; first compound 0.1265 µM) of the same compound?
Answer: 0.231

Question: And the relative viability ([3]; first compound 0.4 µM)?
Answer: 0.26

Question: And the relative viability ([3]; first compound 1.265 µM)?
Answer: 0.275

Question: What about the relative viability ([4]; first compound 0.04 µM) of the same compound?
Answer: 0.712

Question: What about the relative viability ([4]; first compound 0.1265 µM) of the same compound?
Answer: 1.26

Question: What about the relative viability ([4]; first compound 0.4 µM) of the same compound?
Answer: 0.639

Question: And the relative viability ([4]; first compound 1.265 µM)?
Answer: 0.561

Question: What about the relative viability ([5]; first compound 0.04 µM) of the same compound?
Answer: 0.966

Question: And the relative viability ([5]; first compound 0.1265 µM)?
Answer: 1.06

Question: And the relative viability ([5]; first compound 0.4 µM)?
Answer: 1.01

Question: What about the relative viability ([5]; first compound 1.265 µM) of the same compound?
Answer: 0.988

Question: And the relative viability ([6]; first compound 0.04 µM)?
Answer: 0.363

Question: And the relative viability ([6]; first compound 0.1265 µM)?
Answer: 0.401

Question: And the relative viability ([6]; first compound 0.4 µM)?
Answer: 0.347

Question: What about the relative viability ([6]; first compound 1.265 µM) of the same compound?
Answer: 0.371

Question: And the relative viability ([7]; first compound 0.04 µM)?
Answer: 1.01

Question: And the relative viability ([7]; first compound 0.1265 µM)?
Answer: 1.27

Question: What about the relative viability ([7]; first compound 0.4 µM) of the same compound?
Answer: 1.02

Question: What about the relative viability ([7]; first compound 1.265 µM) of the same compound?
Answer: 1.02

Question: What about the relative viability ([8]; first compound 0.04 µM) of the same compound?
Answer: 0.764

Question: What about the relative viability ([8]; first compound 0.1265 µM) of the same compound?
Answer: 0.81

Question: What about the relative viability ([8]; first compound 0.4 µM) of the same compound?
Answer: 0.734

Question: What about the relative viability ([8]; first compound 1.265 µM) of the same compound?
Answer: 0.741

Question: What about the relative viability ([9]; first compound 0.04 µM) of the same compound?
Answer: 1.08

Question: What about the relative viability ([9]; first compound 0.1265 µM) of the same compound?
Answer: 1.34

Question: What about the relative viability ([9]; first compound 0.4 µM) of the same compound?
Answer: 0.868

Question: What about the relative viability ([9]; first compound 1.265 µM) of the same compound?
Answer: 0.867

Question: And the relative viability ([10]; first compound 0.04 µM)?
Answer: 0.595

Question: What about the relative viability ([10]; first compound 0.1265 µM) of the same compound?
Answer: 1.25

Question: What about the relative viability ([10]; first compound 0.4 µM) of the same compound?
Answer: 0.979

Question: What about the relative viability ([10]; first compound 1.265 µM) of the same compound?
Answer: 0.64

Question: What about the relative viability ([11]; first compound 0.04 µM) of the same compound?
Answer: 1

Question: What about the relative viability ([11]; first compound 0.1265 µM) of the same compound?
Answer: 1.02

Question: What about the relative viability ([11]; first compound 0.4 µM) of the same compound?
Answer: 0.904

Question: And the relative viability ([11]; first compound 1.265 µM)?
Answer: 0.803

Question: What about the relative viability ([12]; first compound 0.04 µM) of the same compound?
Answer: 0.673

Question: What about the relative viability ([12]; first compound 0.1265 µM) of the same compound?
Answer: 0.522

Question: And the relative viability ([12]; first compound 0.4 µM)?
Answer: 0.796

Question: What about the relative viability ([12]; first compound 1.265 µM) of the same compound?
Answer: 0.344

Question: What about the relative viability ([13]; first compound 0.04 µM) of the same compound?
Answer: 1.34

Question: What about the relative viability ([13]; first compound 0.1265 µM) of the same compound?
Answer: 1.06

Question: And the relative viability ([13]; first compound 0.4 µM)?
Answer: 0.922

Question: What about the relative viability ([13]; first compound 1.265 µM) of the same compound?
Answer: 0.717

Question: And the relative viability ([14]; first compound 0.04 µM)?
Answer: 1.12

Question: And the relative viability ([14]; first compound 0.1265 µM)?
Answer: 0.894

Question: And the relative viability ([14]; first compound 0.4 µM)?
Answer: 0.919

Question: What about the relative viability ([14]; first compound 1.265 µM) of the same compound?
Answer: 0.752

Question: And the relative viability ([15]; first compound 0.04 µM)?
Answer: 0.589

Question: What about the relative viability ([15]; first compound 0.1265 µM) of the same compound?
Answer: 0.618

Question: What about the relative viability ([15]; first compound 0.4 µM) of the same compound?
Answer: 0.727

Question: And the relative viability ([15]; first compound 1.265 µM)?
Answer: 0.55

Question: And the relative viability ([16]; first compound 0.04 µM)?
Answer: 0.209

Question: And the relative viability ([16]; first compound 0.1265 µM)?
Answer: 0.196

Question: And the relative viability ([16]; first compound 0.4 µM)?
Answer: 0.189

Question: And the relative viability ([16]; first compound 1.265 µM)?
Answer: 0.195

Question: And the relative viability ([17]; first compound 0.04 µM)?
Answer: 1.05

Question: And the relative viability ([17]; first compound 0.1265 µM)?
Answer: 1.03

Question: And the relative viability ([17]; first compound 0.4 µM)?
Answer: 0.972

Question: And the relative viability ([17]; first compound 1.265 µM)?
Answer: 0.743

Question: What about the relative viability ([18]; first compound 0.04 µM) of the same compound?
Answer: 1.01

Question: And the relative viability ([18]; first compound 0.1265 µM)?
Answer: 0.858

Question: And the relative viability ([18]; first compound 0.4 µM)?
Answer: 0.847

Question: What about the relative viability ([18]; first compound 1.265 µM) of the same compound?
Answer: 0.604

Question: And the relative viability ([19]; first compound 0.04 µM)?
Answer: 0.455

Question: And the relative viability ([19]; first compound 0.1265 µM)?
Answer: 0.633

Question: What about the relative viability ([19]; first compound 0.4 µM) of the same compound?
Answer: 0.515

Question: What about the relative viability ([19]; first compound 1.265 µM) of the same compound?
Answer: 0.458

Question: What about the relative viability ([20]; first compound 0.04 µM) of the same compound?
Answer: 0.304

Question: And the relative viability ([20]; first compound 0.1265 µM)?
Answer: 0.391

Question: And the relative viability ([20]; first compound 0.4 µM)?
Answer: 0.339

Question: And the relative viability ([20]; first compound 1.265 µM)?
Answer: 0.302

Question: What about the relative viability ([21]; first compound 0.04 µM) of the same compound?
Answer: 0.8

Question: What about the relative viability ([21]; first compound 0.1265 µM) of the same compound?
Answer: 0.848

Question: What about the relative viability ([21]; first compound 0.4 µM) of the same compound?
Answer: 0.832

Question: And the relative viability ([21]; first compound 1.265 µM)?
Answer: 0.825

Question: And the relative viability ([22]; first compound 0.04 µM)?
Answer: 1.05

Question: And the relative viability ([22]; first compound 0.1265 µM)?
Answer: 1.12

Question: And the relative viability ([22]; first compound 0.4 µM)?
Answer: 1.13

Question: And the relative viability ([22]; first compound 1.265 µM)?
Answer: 0.801
